# Where “and” joins values, the source holds several entries; their conditions need not be identical. Identical values can stand only once. Residues, ends and D or L forms follow the SMILES beside them.
# Columns and labels:
# Mouse α-FXIIa = target: T1, Mouse α-FXIIa (Mus musculus, UniProt Q80YC5); assay: FXIIa protease inhibition assay with fluorogenic substrate Boc-Gln-Gly-Arg-AMC; format: biochemical; conditions: purified peptide without coumarin label; read-out: Ki mouse FXIIa
# T1 construct: Mouse α-FXIIa; purchased Molecular Innovations MFXIIA
# T1 sequence (Q80YC5 355-597 limits assumed): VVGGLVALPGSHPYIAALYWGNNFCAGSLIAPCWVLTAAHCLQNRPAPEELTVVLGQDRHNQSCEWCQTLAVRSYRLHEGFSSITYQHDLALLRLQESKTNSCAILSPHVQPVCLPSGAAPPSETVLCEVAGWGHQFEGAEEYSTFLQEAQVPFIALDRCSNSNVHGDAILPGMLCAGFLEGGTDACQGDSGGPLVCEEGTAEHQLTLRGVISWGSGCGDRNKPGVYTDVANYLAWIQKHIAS
# T1 sequence (Q80YC5 20-354 limits assumed): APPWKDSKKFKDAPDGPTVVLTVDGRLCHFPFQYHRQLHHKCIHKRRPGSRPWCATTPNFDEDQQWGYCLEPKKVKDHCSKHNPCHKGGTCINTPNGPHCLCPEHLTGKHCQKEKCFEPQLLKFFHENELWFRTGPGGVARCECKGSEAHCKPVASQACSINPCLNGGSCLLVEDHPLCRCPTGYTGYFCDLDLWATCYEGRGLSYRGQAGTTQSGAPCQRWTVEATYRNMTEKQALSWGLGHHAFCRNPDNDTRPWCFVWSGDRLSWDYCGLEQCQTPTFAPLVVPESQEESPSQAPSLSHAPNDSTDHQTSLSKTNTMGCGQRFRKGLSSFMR
# Description: (§1) In order to test the inhibitory activity of peptides without prior purification, we developed the following method. […] After solid-phase peptide synthesis, cleavage, and ether precipitation, the peptides were chemically cyclized and their Ki values were determined in a FXIIa activity assay using a fluorogenic substrate.
# (§2) Protease inhibition assays
# (§3) The inhibitory activity of peptides was determined by measuring the residual protease activity with a fluorogenic substrate. The assay was performed in buffer containing 10 mM Tris-Cl, pH […]
# (§4) 1% (v/v) DMSO in a volume of 150 µl. FXIIa activity was measured with the fluorogenic substrate Boc-Gln-Gly-Arg-AMC (Bachem) at a final concentration of 50 µM. Mouse α-FXIIa (Molecular Innovations cat # MFXIIA) and human β-FXIIa (Molecular Innovations cat # HFXIIAB) were used at final concentrations of 0.4 nM. The reaction was pipetted as follows: 50 µl of bicyclic peptide in assay buffer were added to 50 µl of FXIIa in assay buffer and incubated for 10 minutes at 25°C before 50 µl of 150 µM fluorogenic substrate in assay buffer were added to measure the residual protease activity with an Infinite M200Pro fluorescence plate reader (excitation at 368 nm, emission at 467 nm; Tecan) for a period of 30 minutes with a read every minute at 25°C. The Tecan software i-control (version 1.1) was used for data analysis. Stock solutions of 1 mM bicyclic peptide were prepared by either dissolving the unpurified cyclization reaction with water or by dissolving purified and lyophilized peptide in water. The bicyclic peptides were serially diluted two-fold using assay buffer. Sigmoidal curves were fitted to the data using the following dose response equation (1), wherein x = peptide concentration, y = % protease activity, and p = Hill slope. IC50 values were derived from the fitted curve.
# (§5) The inhibition constants (Ki) were calculated according to the equation of Cheng and Prusoff, Ki = IC50/(1+([S]0/Km), wherein IC50 is the functional strength of the inhibitor, [S]0 is the total substrate concentration, and Km is the Michaelis-Menten constant. […]
# (§6) the substrate Boc-Gln-Gly-Arg-AMC. […]
# human β-FXIIa = target: T2, human β-FXIIa (Homo sapiens, UniProt P00748); assay: as above; format: biochemical; conditions: for Ki: purified peptide without coumarin label, read-out: Ki human FXIIa
# T2 construct: human β-FXIIa (Molecular Innovations cat #); purchased Molecular Innovations HFXIIAB; host or cells: human blood
# Description: as §1, §2, §3, §4, §5, §6
# [1] = Plasma stability assay (residual FXIIa inhibitory activity after plasma incubation); format: in vitro ADME, human; conditions: human, plasma
# Description: Peptide (2 μl of 2 mM in H2O) was added to 398 μl of citrated human plasma (Innovative Research) to obtain a final peptide concentration of 10 μM. The mixture was incubated in a water bath at 37 °C. At different time points (0, 0.5, 1, 2, 4, 8, 12, 24, 48, and 96 h), samples of 30 μl were removed, diluted to 200 μl with aqueous buffer (10 mM Tris-HCl, pH 7.4, 150 mM NaCl, 10 mM MgCl2, 1 mM CaCl2), and incubated for 20 min at 65 °C to inactivate plasma proteases. The peptide/plasma samples were stored at −20 °C until the residual inhibitory activity of the peptides was measured in a FXIIa inhibition assay. […] IC50 values were derived from the fitted curve using an equation described in the Supplementary Methods. Residual inhibition in % was calculated using the equation IC50,0h/IC50,xh*100, wherein IC50,0h is the functional strength of the inhibitor at time point 0 and IC50,xh the functional strength of the inhibitor after one of the different plasma incubation periods mentioned above.
# [2] = inhibitor 0.390625 nM, 0.000390625 µM
# [3] = inhibitor 0.390625 nM, read-out: Residual activity of human FXIIa
# [4] = inhibitor 0.78125 nM, 0.00078125 µM
# [5] = inhibitor 0.78125 nM, read-out: Residual activity of human FXIIa
# [6] = inhibitor 1.5625 nM, 0.0015625 µM
# [7] = inhibitor 1.5625 nM, read-out: Residual activity of human FXIIa
# [8] = inhibitor 3.125 nM, 0.003125 µM
# [9] = inhibitor 3.125 nM, read-out: Residual activity of human FXIIa
# [10] = inhibitor 6.25 nM, read-out: Residual activity of human FXIIa
# [11] = inhibitor 12.5 nM, read-out: Residual activity of human FXIIa
# T2 sequence (P00748 373-615 limits assumed, other chains not shown): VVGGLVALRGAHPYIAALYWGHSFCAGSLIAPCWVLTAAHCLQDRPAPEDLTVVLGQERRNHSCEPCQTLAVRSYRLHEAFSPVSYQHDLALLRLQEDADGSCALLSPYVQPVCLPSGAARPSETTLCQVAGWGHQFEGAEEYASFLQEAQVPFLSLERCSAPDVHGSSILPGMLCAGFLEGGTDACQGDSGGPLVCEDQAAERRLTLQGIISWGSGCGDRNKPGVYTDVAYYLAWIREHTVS
smiles,measurement,setting,value
"CC(C)C[C@@H]1NC(=O)[C@H](CCC(N)=O)NC(=O)[C@H](Cc2c[nH]cn2)NC(=O)[C@@H]2CSCCC(=O)N3CN(CN(C3)C(=O)CCSC[C@H](NC(=O)[C@@H](CO)NC(=O)[C@H](N)CCCNC(=N)N)C(=O)N[C@@H](Cc3ccccc3)C(=O)N[C@@H](CCCNC(=N)N)C(=O)N[C@@H](CC(C)C)C(=O)N3CCC[C@H]3C(=O)N2)C(=O)CCSC[C@@H](C(=O)N[C@@H](CCCNC(=N)N)C(N)=O)NC(=O)C[C@H](CCCNC(=N)N)NC1=O [Phe3Phe4F reverted] (HELM PEPTIDE1{[dR].[dS].C.F.R.L.P.C.H.Q.L.[N=C(N)NCCC[C@@H](CC(=O)[*:2])N[*:1]].C.R.[am]}|CHEM1{[O=C(CC[*:1])N1CN(C(=O)CC[*:2])CN(C(=O)CC[*:3])C1]}$PEPTIDE1,CHEM1,3:R3-1:R1|PEPTIDE1,CHEM1,8:R3-1:R2|PEPTIDE1,CHEM1,13:R3-1:R3$$$V2.0)",Ki,Mouse α-FXIIa,1.9 ± 0.5 nM
same,Ki,human β-FXIIa,0.7 ± 0.06 nM
"CC(C)C[C@@H]1NC(=O)[C@H](CCC(N)=O)NC(=O)[C@H](Cc2c[nH]cn2)NC(=O)[C@@H]2CSCCC(=O)N3CN(CN(C3)C(=O)CCSC[C@H](NC(=O)[C@@H](CO)NC(=O)[C@H](N)CCCNC(=N)N)C(=O)N[C@@H](Cc3ccc(F)cc3)C(=O)N[C@@H](CCCNC(=N)N)C(=O)N[C@@H](CC(C)C)C(=O)N3CCC[C@H]3C(=O)N2)C(=O)CCSC[C@@H](C(=O)N[C@@H](CCCNC(=N)N)C(N)=O)NC(=O)[C@H](CCCNC(=N)N)NC1=O [Arg11βhArg reverted] (HELM PEPTIDE1{[dR].[dS].C.[O=C([C@H](Cc1ccc(F)cc1)N[*:1])[*:2]].R.L.P.C.H.Q.L.R.C.R.[am]}|CHEM1{[O=C(CC[*:1])N1CN(C(=O)CC[*:2])CN(C(=O)CC[*:3])C1]}$PEPTIDE1,CHEM1,3:R3-1:R1|PEPTIDE1,CHEM1,8:R3-1:R2|PEPTIDE1,CHEM1,13:R3-1:R3$$$V2.0)",Ki,Mouse α-FXIIa,0.9 ± 0.4 nM
same,Ki,human β-FXIIa,0.51 ± 0.1 nM
"CC(C)C[C@@H]1NC(=O)[C@H](CCC(N)=O)NC(=O)[C@H](Cc2c[nH]cn2)NC(=O)[C@@H]2CSCCC(=O)N3CN(CN(C3)C(=O)CCSC[C@H](NC(=O)[C@@H](N)CCCNC(=N)N)C(=O)N[C@@H](Cc3ccccc3)C(=O)N[C@@H](CCCNC(=N)N)C(=O)N[C@@H](CC(C)C)C(=O)N3CCC[C@H]3C(=O)N2)C(=O)CCSC[C@@H](C(=O)N[C@@H](CCCNC(=N)N)C(N)=O)NC(=O)[C@H](CCCNC(=N)N)NC1=O [FXII851] (HELM PEPTIDE1{R.C.F.R.L.P.C.H.Q.L.R.C.R.[am]}|CHEM1{[O=C(CC[*:1])N1CN(C(=O)CC[*:2])CN(C(=O)CC[*:3])C1]}$PEPTIDE1,CHEM1,2:R3-1:R1|PEPTIDE1,CHEM1,7:R3-1:R2|PEPTIDE1,CHEM1,12:R3-1:R3$$$V2.0)",Ki,Mouse α-FXIIa,36 nM
same,Residual activity of human FXIIa,human β-FXIIa; [2],96.2983%
same,remaining activity at 0.000390625 µM,human β-FXIIa; [3],93.8%
same,Residual activity of human FXIIa,human β-FXIIa; [4],91.5155%
same,remaining activity at 0.00078125 µM,human β-FXIIa; [5],90.5%
same,Residual activity of human FXIIa,human β-FXIIa; [6],83.5319%
same,remaining activity at 0.0015625 µM,human β-FXIIa; [7],84.1%
same,Residual activity of human FXIIa,human β-FXIIa; [8],70.2169%
same,remaining activity at 0.003125 µM,human β-FXIIa; [9],72.3%
same,Residual activity of human FXIIa,"human β-FXIIa; inhibitor 6.25 nM, 0.00625 µM",54.9417%
same,remaining activity at 0.00625 µM,human β-FXIIa; [10],56.8%
same,Residual activity of human FXIIa,"human β-FXIIa; inhibitor 12.5 nM, 0.0125 µM",37.7877%
same,remaining activity at 0.0125 µM,human β-FXIIa; [11],38.2%
same,Residual activity of human FXIIa,"human β-FXIIa; inhibitor 25 nM, […]",23.2045%
same,remaining activity at […],"human β-FXIIa; inhibitor 25 nM, read-out: Residual activity of human FXIIa",25%
same,Residual activity of human FXIIa,"human β-FXIIa; inhibitor 50 nM, 0.05 µM",12.5321%
same,remaining activity at 0.05 µM,"human β-FXIIa; inhibitor 50 nM, read-out: Residual activity of human FXIIa",14.1%
same,Residual activity of human FXIIa,"human β-FXIIa; inhibitor 100 nM, 0.1 µM",6.25%
same,remaining activity at 0.1 µM,"human β-FXIIa; inhibitor 100 nM, read-out: Residual activity of human FXIIa",6.97%
same,Residual activity of human FXIIa,"human β-FXIIa; inhibitor 200 nM, 0.2 µM",1.167% and 2.638%
same,Residual activity of human FXIIa,"human β-FXIIa; inhibitor 400 nM, 0.4 µM",1.099%
same,remaining activity at 0.4 µM,"human β-FXIIa; inhibitor 400 nM, read-out: Residual activity of human FXIIa",1.94%
same,Ki,human β-FXIIa,6.5 nM
"CC(C)C[C@@H]1NC(=O)[C@H](CCC(N)=O)NC(=O)[C@H](CCCNC(=N)N)NC(=O)[C@@H]2CSCCC(=O)N3CN(CN(C3)C(=O)CCSC[C@H](NC(=O)[C@@H](CO)NC(=O)[C@H](N)CCCNC(=N)N)C(=O)N[C@@H](Cc3ccccc3)C(=O)N[C@@H](CCCNC(=N)N)C(=O)N[C@@H](CC(C)C)C(=O)N3CCC[C@H]3C(=O)N2)C(=O)CCSC[C@@H](C(=O)N[C@@H](CCCNC(=N)N)C(N)=O)NC(=O)[C@H](CCCNC(=N)N)NC1=O [FXII850] (HELM PEPTIDE1{[dR].[dS].C.F.R.L.P.C.R.Q.L.R.C.R.[am]}|CHEM1{[O=C(CC[*:1])N1CN(C(=O)CC[*:2])CN(C(=O)CC[*:3])C1]}$PEPTIDE1,CHEM1,3:R3-1:R1|PEPTIDE1,CHEM1,8:R3-1:R2|PEPTIDE1,CHEM1,13:R3-1:R3$$$V2.0)",Ki,Mouse α-FXIIa,35 nM
same,Residual activity of human FXIIa,human β-FXIIa; [2],94.4127%
same,remaining activity at 0.000390625 µM,human β-FXIIa; [3],97.1%
same,Residual activity of human FXIIa,human β-FXIIa; [4],86.6748%
same,remaining activity at 0.00078125 µM,human β-FXIIa; [5],93.2%
same,Residual activity of human FXIIa,human β-FXIIa; [6],72.1433%
same,remaining activity at 0.0015625 µM,human β-FXIIa; [7],82.9%
same,Residual activity of human FXIIa,human β-FXIIa; [8],57.4159%
same,remaining activity at 0.003125 µM,human β-FXIIa; [9],73.8%
same,Residual activity of human FXIIa,"human β-FXIIa; inhibitor 6.25 nM, 0.00625 µM",39.85%
same,remaining activity at 0.00625 µM,human β-FXIIa; [10],56.3%
same,Residual activity of human FXIIa,"human β-FXIIa; inhibitor 12.5 nM, 0.0125 µM",25.3131%
same,remaining activity at 0.0125 µM,human β-FXIIa; [11],37.4%
same,Residual activity of human FXIIa,"human β-FXIIa; inhibitor 50 nM, 0.05 µM",12.7513% and 5.338%
same,Residual activity of human FXIIa,"human β-FXIIa; inhibitor 100 nM, 0.1 µM",6.402% and 0.6734%
same,Residual activity of human FXIIa,"human β-FXIIa; inhibitor 200 nM, 0.2 µM",3.022% and 0%
same,Residual activity of human FXIIa,"human β-FXIIa; inhibitor 400 nM, 0.4 µM",1.539% and 0%
same,Ki,human β-FXIIa,5 nM
same,half-life at 10 μM,[1],18.5 h

# Source: publication PMC7403315, “Cyclic peptide FXII inhibitor provides safe anticoagulation in a thrombosis model and in artificial lungs” (Nature Communications, 2020)
